Measured values taken from US7795236B2, “Purine nucleoside derivative modified in 8-position and medical use thereof” (Kissei Pharmaceutical Co., Ltd., priority 2005, dated 2010).
pIC50: −log10 of the molar value.

Biological target: T1, human CNT2 (Homo sapiens, UniProt O43868, I160M/P22L/S45C)
T1 construct: expressed in transfected cells; host or cells: COS-7 cells (RIKEN CELL BANK RCB0539), transient lipofection of a pCI-neo plasmid
T1 sequence (O43868 1-658 P22L/S45C/I160M): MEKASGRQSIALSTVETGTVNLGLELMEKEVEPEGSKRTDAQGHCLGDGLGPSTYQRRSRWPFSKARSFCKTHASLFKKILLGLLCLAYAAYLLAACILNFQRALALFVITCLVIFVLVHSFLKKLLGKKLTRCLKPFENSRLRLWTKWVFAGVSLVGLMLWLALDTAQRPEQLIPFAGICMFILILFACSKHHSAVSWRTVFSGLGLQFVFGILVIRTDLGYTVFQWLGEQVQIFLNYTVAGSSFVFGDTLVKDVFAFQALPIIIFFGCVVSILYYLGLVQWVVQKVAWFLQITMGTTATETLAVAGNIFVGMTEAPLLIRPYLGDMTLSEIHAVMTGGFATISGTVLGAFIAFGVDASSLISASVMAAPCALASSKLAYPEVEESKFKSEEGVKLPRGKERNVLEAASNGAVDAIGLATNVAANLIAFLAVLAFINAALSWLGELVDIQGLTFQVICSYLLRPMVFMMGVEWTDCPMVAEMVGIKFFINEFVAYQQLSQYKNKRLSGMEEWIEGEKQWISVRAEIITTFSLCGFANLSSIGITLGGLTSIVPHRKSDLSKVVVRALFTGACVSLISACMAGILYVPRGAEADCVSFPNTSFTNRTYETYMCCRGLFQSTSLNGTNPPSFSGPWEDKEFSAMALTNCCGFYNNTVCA
Experiment: Inhibitory activity against uptake of inosine through human CNT2
Assay type: cell-based
Conditions: 14C-labeled inosine 10 μM, COS-7 cells transiently expressing human CNT2, 30 minutes at 37° C.
Procedure: Expression plasmid of human CNT2 was transfected into COS-7 cells (RIKEN CELL BANK RCB0539) by lipofection method. LIPOFECTAMINE 2000 (Invitrogen) was used as a lipofection reagent. COS-7 cells were diluted in D-MEM (Invitrogen) containing 10% fetal calf serum (Sanko Junyaku) at 5×10^5/1 mL, and seeded into collagen-coated 96-well plates (IWAKI) at 100 μL/well and cultured at 37° C. for 2 hours with 5% CO2 condition. For each well, 0.6 μL of LIPOFECTAMINE 2000 (Invitrogen) was diluted in 25 μL of OPTI-MEM (Invitrogen), and incubated for 7 minutes at room temperature (hereinafter referred to as Lipo 2000-OPTI). For each well, 0.3 μg of plasmid was diluted in 25 μL of OPTI-MEM (Invitrogen), and the solution was added to the Lipo 2000-OPTI and mixed gently and incubated for 30 minutes at room temperature, and was transferred 50 μL for each well to culture medium. The cells were incubated at 37° C. with 5% CO2 condition for 2 days, and used for the uptake assays.
An Uptake buffer was prepared by addition of a mixture of non-radioisotope labeled (WAKO) and ^14C-labeled (Muromachi Yakuhin) inosine at the final concentration of 10 μM into a buffer, pH7.4, containing 140 mM sodium chloride, 2 mM potassium chloride, 1 mM calcium chloride, 1 mM magnesium chloride, 10 mM HEPES 2-[4-(2-hydroxyethyl)-1-piperazinyl]ethane sulfonic acid, 5 mM tris(hydroxymethyl)aminomethane and 5 mM glucose. For measurement of basal uptake, Basal uptake measurement buffer, which contained 140 mM choline chloride instead of sodium chloride was prepared. In uptake assays, NBMPR was added to Uptake buffer and Basal uptake measurement buffer at the final concentration of […]. In the case of measurement of inhibitory activity of test compounds, test compounds were dissolved in dimethyl sulfoxide, and then appropriately diluted with Uptake buffer as to prepare Measurement buffers. After removing culture medium of human CNT2 transiently expressing cells, Pretreatment buffer (Basal uptake measurement buffer without inosine and glucose) was added to wells at 200 μL/well and incubated at 37° C. for 10 minutes. After repeating the same step again, Pretreatment buffer was removed and Measurement buffers and Basal uptake measurement buffer were added at 75 μL/well and incubated at 37° C. After incubation for 30 minutes, Measurement buffers and Basal uptake measurement buffer were removed, and the cells were washed with Washing buffer (Basal uptake measurement buffer with non-radioisotope labeled inosine at 10 μM) at 200 μL/well twice. The cells were solubilized with 0.2 mol/L sodium hydroxide at 75 μL/well, and the cell lysates were transferred into PicoPlates (Perkin Elmer). After mixing with 150 μL of MicroScint-40 (Perkin Elmer), radioactivity was measured by means of scintillation counter (Perkin Elmer). One hundred % was set to the difference between the uptake in the control group and the basal uptake, and the uptake of inosine at each test compound concentration was calculated. The test compound concentration inhibiting 50% uptake of inosine (IC50 value) was calculated using logit plot.

Q: With Nc1ncnc2c1nc(NCc1ccc(-c3ccccc3)c(OCCCN3CCCC3)c1)n2[C@@H]1O[C@H](CO)[C@@H](O)[C@H]1O [Example 120] as the compound, how does the pIC50 read?
A: 6.35

Q: With NC(=O)[C@H](Cc1ccc(O)cc1)NCCCOc1cccc(-c2ccc(CNc3nc4c(N)ncnc4n3[C@@H]3O[C@H](CO)[C@@H](O)[C@H]3O)cc2)c1 [Example 164] as the compound, how does the pIC50 read?
A: 7.07

Q: With Nc1ncnc2c1nc(NCc1ccc(-c3cccc(OCCCN4CCCCC4)c3)cc1)n2[C@@H]1O[C@H](CO)[C@@H](O)[C@H]1O [Example 125] as the compound, how does the pIC50 read?
A: 6.28

Q: With N=C(N)NCCCOc1cccc(-c2ccc(CNc3nc4c(N)ncnc4n3[C@@H]3O[C@H](CO)[C@@H](O)[C@H]3O)cc2)c1 [Example 157, 8-[3′-(3-Guanidinopropoxy)biphenyl-4-ylmethylamino]-adenosine] as the compound, how does the pIC50 read?
A: 6.63

Q: With NCCCOc1cc(CNc2nc3c(N)ncnc3n2[C@H]2C[C@H](O)[C@@H](CO)O2)ccc1-c1ccccc1 [Example 155] as the compound, how does the pIC50 read?
A: 6.58

Q: With CN(C)CCCOc1cccc(-c2ccc(CNc3nc4c(N)ncnc4n3[C@@H]3O[C@H](CO)[C@@H](O)[C@H]3O)cc2)c1 [Example 117] as the compound, how does the pIC50 read?
A: 6.42

Q: With Nc1ncnc2c1nc(NCc1ccc(-c3ccsc3)cc1)n2[C@@H]1O[C@H](CO)[C@@H](O)[C@H]1O [Example 132] as the compound, how does the pIC50 read?
A: 6.19

Q: With CCN(CCO)CCCOc1cc(CNc2nc3c(N)ncnc3n2[C@@H]2O[C@H](CO)[C@@H](O)[C@H]2O)ccc1-c1ccccc1 [Example 130] as the compound, how does the pIC50 read?
A: 6.65

Q: With NCCCOc1ccc(-c2cccc(CNc3nc4c(N)ncnc4n3[C@@H]3O[C@H](CO)[C@@H](O)[C@H]3O)c2)cc1 [Example 149] as the compound, how does the pIC50 read?
A: 6.75

Q: With CN(C)CCCOc1cccc(-c2ccc(CCNc3nc4c(N)ncnc4n3[C@@H]3O[C@H](CO)[C@@H](O)[C@H]3O)cc2)c1 [Example 171] as the compound, how does the pIC50 read?
A: 5.61

Q: With NCCCOc1cccc(-c2ccc(CNc3nc4c(N)ncnc4n3[C@@H]3O[C@H](CO)[C@@H](O)[C@@H]3O)cc2)c1 [Example 154] as the compound, how does the pIC50 read?
A: 5.15

Q: With NCCCOc1cc(CNc2nc3c(N)ncnc3n2[C@@H]2O[C@H](CO)[C@@H](O)[C@@H]2O)ccc1-c1ccccc1 [Example 153] as the compound, how does the pIC50 read?
A: 5.79

Q: With CCN(CC)CCCOc1cc(CNc2nc3c(N)ncnc3n2[C@@H]2O[C@H](CO)[C@@H](O)[C@H]2O)ccc1-c1ccccc1 [Example 115, 8-[2-(3-Diethylaminopropoxy)biphenyl-4-ylmethylamino]-adenosine] as the compound, how does the pIC50 read?
A: 6.42

Q: With CCCNCCCOc1cc(CNc2nc3c(N)ncnc3n2[C@@H]2O[C@H](CO)[C@@H](O)[C@H]2O)ccc1-c1ccccc1 [Example 147] as the compound, how does the pIC50 read?
A: 6.49

Q: With C[N+](C)(C)CCCOc1cccc(-c2ccc(CNc3nc4c(N)ncnc4n3[C@@H]3O[C@H](CO)[C@@H](O)[C@H]3O)cc2)c1 [Example 167] as the compound, how does the pIC50 read?
A: 6.39

Biological target: T2, human CNT2 (Homo sapiens, UniProt O43868)
T2 construct: expressed in transfected cells; host or cells: COS-7 cells (RIKEN CELL BANK RCB0539), transient lipofection of a pCI-neo plasmid
T2 sequence (O43868 1-658 P22L/S45C/I160M): T1 sequence (O43868 1-658 P22L/S45C/I160M)
Experiment: Inhibitory activity against uptake of adenosine through human CNT2
Assay type: cell-based
Conditions: 14C-labeled adenosine 10 μM, COS-7 cells transiently expressing human CNT2, 30 minutes at 37° C.
Procedure: Expression plasmid of human CNT2 was transfected into COS-7 cells (RIKEN CELL BANK RCB0539) by lipofection method. LIPOFECTAMINE 2000 (Invitrogen) was used as a lipofection reagent. COS-7 cells were diluted in D-MEM (Invitrogen) containing 10% fetal calf serum (Sanko Junyaku) at 5×10^5/1 mL, and seeded into collagen-coated 96-well plates (IWAKI) at 100 μL/well and cultured at 37° C. for 2 hours with 5% CO2 condition. For each well, 0.6 μL of LIPOFECTAMINE 2000 (Invitrogen) was diluted in 25 μL of OPTI-MEM (Invitrogen), and incubated for 7 minutes at room temperature (hereinafter referred to as Lipo 2000-OPTI). […]
An Uptake buffer was prepared by addition of a mixture of non-radioisotope labeled (Sigma) and ^14C-labeled (Amersham Biosciences) adenosine at the final concentration of 10 μM into a buffer, pH 7.4, containing 140 mM sodium chloride, 2 mM potassium chloride, 1 mM calcium chloride, 1 mM magnesium chloride, 10 mM HEPES 2-[4-(2-hydroxyethyl)-1-piperazinyl]ethane sulfonic acid, 5 mM tris(hydroxy-methyl)aminomethane and 5 mM glucose. […] After mixing with 150 μL of MicroScint-40 (Perkin Elmer), radioactivity was measured by means of scintillation counter (Perkin Elmer). One hundred % was set to the difference between the uptake in the control group and the basal uptake, and the uptake of adenosine at each test compound concentration was calculated. […]

Q: With Nc1ncnc2c1nc(NCc1ccc(-c3ccccc3)c(OCCCCO)c1)n2[C@@H]1O[C@H](CO)[C@@H](O)[C@H]1O [Example 82] as the compound, how does the pIC50 read?
A: 6.53

Biological target: T3, ENT2 (Homo sapiens, UniProt Q14542)
T3 sequence (Q14542 1-456): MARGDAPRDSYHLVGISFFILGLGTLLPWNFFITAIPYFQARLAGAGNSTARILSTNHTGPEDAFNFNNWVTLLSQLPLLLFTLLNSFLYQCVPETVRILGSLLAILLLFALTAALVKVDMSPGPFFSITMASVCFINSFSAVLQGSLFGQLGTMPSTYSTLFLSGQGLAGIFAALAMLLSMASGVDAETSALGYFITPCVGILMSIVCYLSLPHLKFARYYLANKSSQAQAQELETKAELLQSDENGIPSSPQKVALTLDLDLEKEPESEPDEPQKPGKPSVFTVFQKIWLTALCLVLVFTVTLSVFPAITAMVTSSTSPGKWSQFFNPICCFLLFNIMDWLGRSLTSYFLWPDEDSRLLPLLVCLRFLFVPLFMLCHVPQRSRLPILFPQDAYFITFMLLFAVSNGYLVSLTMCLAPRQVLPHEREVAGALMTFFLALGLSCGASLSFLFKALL
Experiment: not given
Conditions: ENT2 inhibited only by high concentration of NBMPR; cited from earlier work

Q: With O=[N+]([O-])c1ccc(CSc2ncnc3c2ncn3C2OC(CO)C(O)C2O)cc1 (stereo not shown) [NBMPR, nitrobenzylthioinosine] as the compound, how does the pIC50 read?
A: < 6.00

Test system: not listed separately
Experiment: Effects of CNT inhibitor on plasma uric acid level (purine load test in rats)
Assay type: in vivo
Conditions: Male SD-IGS rats, oxonic acid 100 mg/kg s.c., purine mix 50 mg/kg and test compound 50 mg/kg orally, blood after 1 hour; control group = 100%
Procedure: Male SD-IGS rats (5 weeks old) which were fasted overnight, were subcutaneously treated with oxonic acid (Aldrich; 100 mg/kg), and after 1 hour, purine mix (Adenosine: Inosine: Guanosine=1:1:1 (Adenosine (Sigma), Inosine (WAKO), Guanosine (ICN); 50 mg/kg) and test compounds (50 mg/kg) were orally administrated simultaneously. A control group was treated with oxonic acid and the purine mix, and a group administrated only oxonic acid represented endogenous plasma uric acid value. After 1 hour, blood was collected from the abdominal aorta under ether anesthesia, and the plasma was collected with Venoject II vacuum blood collecting tube (Terumo, VP-FH052). According to the method described in Journal of Chromatography B, Vol. 744 (2000), pp. 129-138, plasma uric acid level was measured by using HPLC method mentioned below. The difference between plasmauric acid value in each study group and endogenous plasma uric acid value was calculated on the basis of 100% in the control group.
Theophylline (10 μg) as an internal standard substance was added to 0.1 mL of plasma collected with the above method, and then the samples were deproteinized with 1 mL of methanol. After the samples were centrifuged, the methanol layers were evaporated to dryness under a stream of nitrogen. […] Plasma uric acid concentration was determined by HPLC method according to the condition described below. […]

Q: Which “Percentage of increment of plasma uric acid level (%)” value does the source give for Nc1ncnc2c1nc(NCc1ccc(-c3ccccc3)c(OCCCCO)c1)n2[C@@H]1O[C@H](CO)[C@@H](O)[C@H]1O [Example 82] here?
A: 44.1 (p < 0.05) %

Test system: CNT
Experiment: not given
Conditions: Non-patent Reference 14; cited from earlier work

Q: Which “inhibitory activity against CNT” value does the source give for Nc1ncnc2c1nc(Br)n2[C@@H]1O[C@H](CO)[C@@H](O)[C@H]1O [8-bromoadenosine] here?
A: weak inhibitory activity
